The values that follow come from PubChem BioAssay (NCI).

Each structure is given as a SMILES string.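 Where inhibition never reached the appropriate level, the endpoint shown equals the highest concentration tested. Otherwise, values were interpolated linearly from a five-concentration, 48-hour dose response in 96-well plates. At the GI50, growth is halved. The concentration for full growth arrest is given as TGI.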

Among the test systems are BT-549 breast; DU-145 prostate; LOX IMVI melanoma; MDA-MB-435; PC-3 prostate; T-47D breast; HCC-2998 colon; DMS 273 small cell lung; LXFL 529 NSCLC; SF-268 CNS; SNB-78 CNS.
Holding throughout (assay): growth of human tumour cells (NCI), 48 h

Turning to `CC(=S)NC1C(Oc2ccc3c(C)cc(=O)oc3c2)OC(CO)C(O)C1O` (centres undefined), the TGI in the assay on BT-549 breast, in the assay on DU-145 prostate, with LOX IMVI melanoma, in the assay on MDA-MB-435, in the assay with PC-3 prostate and in the assay with T-47D breast was more than 100 µM throughout.

For the compound `C[Si](C)(C)C1=C2C(=O)c3ccccc3C(=O)C2=C([Si](C)(C)C)[C@@H]2CCCC[C@H]12`, the TGI with BT-549 breast, with DU-145 prostate, in the assay on HCC-2998 colon, in the assay with LOX IMVI melanoma, in the assay with MDA-MB-435 and in the assay on PC-3 prostate was more than 100 µM each time. Also, the TGI with T-47D breast was more than 100 µM.

`CC(C)OP(=O)(OC(C)C)c1ncn(-c2ccc([N+](=O)[O-])cc2)n1`: the TGI in the assay with DMS 273 small cell lung, in the assay with HCC-2998 colon, in the assay with LXFL 529 NSCLC and with SF-268 CNS was more than 100 µM each time.

As for `Cc1cccc2ns[s+]c12`, the TGI with DMS 273 small cell lung, with HCC-2998 colon, in the assay on LXFL 529 NSCLC, with SF-268 CNS and with SNB-78 CNS was more than 100 µM in each case.

For `COc1ccc2c(c1)CCC1C2CCC2(C)C1CC[C@@]2(O)CNC(=O)/C=C/c1ccc(O)c(O)c1` (some centres undefined), the GI50 in the assay on BT-549 breast was 3.95 µM; with DU-145 prostate, 3.11 µM; in the assay with LOX IMVI melanoma, 1580 nM; with MDA-MB-435, 2860 nM; in the assay with PC-3 prostate it was 1920 nM; in the assay on SF-268 CNS, 2970 nM. Besides, in the assay with T-47D breast, the GI50 was 3.15 µM. Moreover, the TGI was more than 100 µM with BT-549 breast; more than 100 µM in the assay on DU-145 prostate; 5.57 µM in the assay on LOX IMVI melanoma; 19.2 µM in the assay on MDA-MB-435; 10.2 µM in the assay on PC-3 prostate; more than 100 µM with SF-268 CNS. Besides, in the assay with T-47D breast, the TGI is more than 100 µM.

`O=C(CCc1nnc2s/c(=C\c3ccc(Cl)cc3Cl)c(=O)n12)Nc1cc(Cl)c(Cl)cc1Cl`: the GI50 with DMS 273 small cell lung is more than 100 µM; in the assay on LXFL 529 NSCLC, more than 100 µM; with SF-268 CNS, more than 100000 nM. Besides, the TGI in the assay with DMS 273 small cell lung, in the assay on HCC-2998 colon, in the assay with LXFL 529 NSCLC, in the assay on SF-268 CNS and in the assay on SNB-78 CNS was more than 100 µM in each case.

Take `CN1C(=N\S(=O)(=O)c2ccc(Cl)cc2)/C(=N/N=P(c2ccccc2)(c2ccccc2)c2ccccc2)c2ccccc21`: the TGI in the assay with DMS 273 small cell lung, with HCC-2998 colon, in the assay with LXFL 529 NSCLC, in the assay on SF-268 CNS and with SNB-78 CNS was more than 100 µM each time.
